{
  "source": "paper PMC5122408",
  "about": "“High throughput chemical library screening identifies a novel p110-δ inhibitor that potentiates the anti-myeloma effect of bortezomib” (Oncotarget, 2016)",
  "key": {"p110-β": {"biological_target": "p110-β (Homo sapiens, UniProt P42338)", "sequence (P42338 whole entry)": "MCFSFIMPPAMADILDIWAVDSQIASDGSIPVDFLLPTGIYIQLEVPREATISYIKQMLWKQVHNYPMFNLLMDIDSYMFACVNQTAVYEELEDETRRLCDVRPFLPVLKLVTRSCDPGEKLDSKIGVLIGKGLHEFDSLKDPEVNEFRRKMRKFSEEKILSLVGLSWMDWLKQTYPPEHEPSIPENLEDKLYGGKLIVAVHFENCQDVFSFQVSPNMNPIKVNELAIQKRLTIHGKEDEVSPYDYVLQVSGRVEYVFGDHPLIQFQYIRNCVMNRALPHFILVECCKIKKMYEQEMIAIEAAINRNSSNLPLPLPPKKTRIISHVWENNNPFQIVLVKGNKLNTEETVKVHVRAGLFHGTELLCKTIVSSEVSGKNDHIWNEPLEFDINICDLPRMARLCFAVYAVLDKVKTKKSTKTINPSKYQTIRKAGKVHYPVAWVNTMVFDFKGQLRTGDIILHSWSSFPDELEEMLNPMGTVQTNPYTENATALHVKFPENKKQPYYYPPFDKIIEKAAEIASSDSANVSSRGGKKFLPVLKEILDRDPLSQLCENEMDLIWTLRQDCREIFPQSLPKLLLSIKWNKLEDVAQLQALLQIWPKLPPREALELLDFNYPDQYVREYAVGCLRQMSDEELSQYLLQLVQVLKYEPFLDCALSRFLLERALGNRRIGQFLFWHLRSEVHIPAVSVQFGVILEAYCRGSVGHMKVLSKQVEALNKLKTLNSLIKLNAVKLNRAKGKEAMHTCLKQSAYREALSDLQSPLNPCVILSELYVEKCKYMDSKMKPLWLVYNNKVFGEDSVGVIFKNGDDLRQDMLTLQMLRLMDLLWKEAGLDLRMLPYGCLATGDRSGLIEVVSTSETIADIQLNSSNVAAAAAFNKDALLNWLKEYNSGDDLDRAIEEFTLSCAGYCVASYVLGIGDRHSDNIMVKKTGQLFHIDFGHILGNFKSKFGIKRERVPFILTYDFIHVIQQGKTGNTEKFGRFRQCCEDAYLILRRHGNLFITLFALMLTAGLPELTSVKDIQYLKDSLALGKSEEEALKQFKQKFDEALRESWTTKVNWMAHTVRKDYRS", "sequence (P27986 whole entry partner)": "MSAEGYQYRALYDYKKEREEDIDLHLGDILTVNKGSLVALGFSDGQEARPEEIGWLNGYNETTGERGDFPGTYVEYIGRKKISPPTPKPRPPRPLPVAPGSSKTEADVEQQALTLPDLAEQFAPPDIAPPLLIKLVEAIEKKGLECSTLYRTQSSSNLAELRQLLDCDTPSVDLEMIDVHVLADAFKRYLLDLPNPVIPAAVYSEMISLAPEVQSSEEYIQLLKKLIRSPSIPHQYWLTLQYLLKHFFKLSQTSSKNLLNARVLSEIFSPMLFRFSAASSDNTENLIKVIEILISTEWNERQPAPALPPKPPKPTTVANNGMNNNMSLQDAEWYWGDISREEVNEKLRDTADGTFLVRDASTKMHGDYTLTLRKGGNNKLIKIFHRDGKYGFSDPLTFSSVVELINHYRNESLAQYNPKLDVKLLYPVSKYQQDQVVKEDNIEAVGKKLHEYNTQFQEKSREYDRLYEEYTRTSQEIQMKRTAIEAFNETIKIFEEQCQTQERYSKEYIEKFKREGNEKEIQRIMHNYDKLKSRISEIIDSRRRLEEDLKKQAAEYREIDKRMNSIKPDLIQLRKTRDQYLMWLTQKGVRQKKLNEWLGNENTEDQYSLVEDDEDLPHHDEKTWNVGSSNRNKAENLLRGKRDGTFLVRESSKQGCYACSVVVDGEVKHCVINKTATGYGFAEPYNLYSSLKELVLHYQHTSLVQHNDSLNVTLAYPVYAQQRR", "assay": "Kinase inhibitory profile / PIP3 production"}, "p110-δ": {"biological_target": "p110-δ (Homo sapiens, UniProt O00329)", "sequence (O00329 whole entry)": "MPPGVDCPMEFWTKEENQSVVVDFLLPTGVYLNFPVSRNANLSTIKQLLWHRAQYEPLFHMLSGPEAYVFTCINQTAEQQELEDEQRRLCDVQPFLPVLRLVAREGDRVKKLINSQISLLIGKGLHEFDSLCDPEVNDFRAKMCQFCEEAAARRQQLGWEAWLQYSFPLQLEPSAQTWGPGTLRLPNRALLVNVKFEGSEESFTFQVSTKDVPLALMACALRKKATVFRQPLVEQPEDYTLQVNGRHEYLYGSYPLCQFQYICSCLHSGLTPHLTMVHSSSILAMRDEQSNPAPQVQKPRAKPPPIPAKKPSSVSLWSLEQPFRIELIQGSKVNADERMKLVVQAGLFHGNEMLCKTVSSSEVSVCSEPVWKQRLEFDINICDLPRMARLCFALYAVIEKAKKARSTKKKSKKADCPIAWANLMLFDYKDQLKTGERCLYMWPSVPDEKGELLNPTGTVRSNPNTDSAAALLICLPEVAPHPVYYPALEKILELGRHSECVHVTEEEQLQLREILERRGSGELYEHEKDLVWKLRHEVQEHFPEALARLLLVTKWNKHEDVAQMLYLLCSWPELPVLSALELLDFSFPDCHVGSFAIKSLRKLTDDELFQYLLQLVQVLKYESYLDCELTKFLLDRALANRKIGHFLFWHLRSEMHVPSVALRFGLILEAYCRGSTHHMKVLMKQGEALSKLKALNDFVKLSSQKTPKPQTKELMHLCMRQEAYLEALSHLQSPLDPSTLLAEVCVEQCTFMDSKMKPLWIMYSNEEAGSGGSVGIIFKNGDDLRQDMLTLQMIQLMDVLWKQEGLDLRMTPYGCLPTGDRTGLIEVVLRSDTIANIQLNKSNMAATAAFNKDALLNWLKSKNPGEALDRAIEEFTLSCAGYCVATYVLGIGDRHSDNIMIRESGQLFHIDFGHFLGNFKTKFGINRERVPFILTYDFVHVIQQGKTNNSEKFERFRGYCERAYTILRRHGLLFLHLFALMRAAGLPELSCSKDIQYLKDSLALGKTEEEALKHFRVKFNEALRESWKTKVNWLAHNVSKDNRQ", "sequence (P27986 whole entry partner)": "as the sequence (P27986 whole entry partner) above", "assay": "Kinase inhibitory profile / PIP3 production", "set-up": "Inhibitory profile (kinase inhibition): key to the marks not given beside the values"}, "RPMI8226 cells": {"tested_on": "RPMI8226 cells", "assay": "XTT viability of RPMI8226 cells after PIK3CD shRNA knockdown", "type": "cell-based", "conditions": "XTT assay", "experimental": "Values represent the average of triplicate measurements. […] Values represent the average of triplicate measurements. […] Values represent the average of triplicate measurements.\nCells were plated, treated as indicated for 72 h and 2, 3-bis-(2-methoxy-4-nitro-5-sulfophenyl)-2H-tetrazolium-5-carboxanilide) added (Sigma-Aldrich) after activation with N-methyl dibenzopyrazine methyl sulfate (Sigma-Aldrich). Absorbance was measured and the effect on myeloma viability determined as previously described. Assays were performed in triplicate and the mean and standard deviation determined. Relative cell viability (mean ± SD) was calculated compared to readings from untreated cells.\nshRNA in pLKO.1-TCR lentiviral cloning vectors were transfected into 293T packaging cells with packaging and envelope vector using lipofectamine 2000 (Thermo-Fisher). Viral supernatants were used to transduce myeloma cells. After 48 h, virus was collected and RPMI8226 cells transduced with vectors expressing scrambled (control) or p110-specific shRNA. Cells were mixed with virus and polybrene (8 μg/mL), centrifuged at 2000 × rpm for 90 min, incubated overnight, media changed and selected in puromycin."}, "PKC2-α": {"biological_target": "PKC2-α (Homo sapiens, UniProt O00443)", "assay": "Kinase inhibitory profile", "type": "biochemical", "conditions": "Class II PI3Ks; 10-point concentration assays"}, "AMPK": {"tested_on": "AMPK", "assay": "Kinase inhibitory profile", "type": "biochemical", "conditions": "Other Clinically-relevant Kinases; 10-point concentration assays"}, "VPS34": {"biological_target": "VPS34 (Homo sapiens, UniProt Q8NEB9)", "sequence (Q8NEB9 whole entry)": "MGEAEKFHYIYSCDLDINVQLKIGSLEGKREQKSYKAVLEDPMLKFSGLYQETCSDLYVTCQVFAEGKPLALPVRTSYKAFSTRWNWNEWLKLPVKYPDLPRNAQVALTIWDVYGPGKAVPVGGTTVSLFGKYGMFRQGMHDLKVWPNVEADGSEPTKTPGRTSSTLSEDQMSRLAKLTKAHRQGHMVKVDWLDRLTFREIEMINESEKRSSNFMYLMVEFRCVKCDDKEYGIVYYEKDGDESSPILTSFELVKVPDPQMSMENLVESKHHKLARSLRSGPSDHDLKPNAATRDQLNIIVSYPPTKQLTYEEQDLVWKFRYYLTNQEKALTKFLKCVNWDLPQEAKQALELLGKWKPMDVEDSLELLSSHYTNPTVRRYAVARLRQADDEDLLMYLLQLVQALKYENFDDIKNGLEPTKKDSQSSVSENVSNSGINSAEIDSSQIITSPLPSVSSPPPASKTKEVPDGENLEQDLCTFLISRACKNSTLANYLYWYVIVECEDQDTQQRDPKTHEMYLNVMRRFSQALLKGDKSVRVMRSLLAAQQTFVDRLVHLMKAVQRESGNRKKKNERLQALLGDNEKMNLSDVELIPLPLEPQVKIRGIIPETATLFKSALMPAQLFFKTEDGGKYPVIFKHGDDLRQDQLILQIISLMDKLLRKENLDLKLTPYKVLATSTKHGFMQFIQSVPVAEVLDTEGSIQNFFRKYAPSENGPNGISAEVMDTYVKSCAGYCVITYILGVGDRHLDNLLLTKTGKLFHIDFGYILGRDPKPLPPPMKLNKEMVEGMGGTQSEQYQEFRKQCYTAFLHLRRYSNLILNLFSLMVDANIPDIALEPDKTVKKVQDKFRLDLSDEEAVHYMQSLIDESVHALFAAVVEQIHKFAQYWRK", "assay": "Kinase inhibitory profile", "type": "biochemical", "conditions": "Class III PI3Ks; 10-point concentration assays"}, "ERBB4": {"biological_target": "ERBB4 (Homo sapiens, UniProt Q15303)", "sequence (Q15303 26-1308)": "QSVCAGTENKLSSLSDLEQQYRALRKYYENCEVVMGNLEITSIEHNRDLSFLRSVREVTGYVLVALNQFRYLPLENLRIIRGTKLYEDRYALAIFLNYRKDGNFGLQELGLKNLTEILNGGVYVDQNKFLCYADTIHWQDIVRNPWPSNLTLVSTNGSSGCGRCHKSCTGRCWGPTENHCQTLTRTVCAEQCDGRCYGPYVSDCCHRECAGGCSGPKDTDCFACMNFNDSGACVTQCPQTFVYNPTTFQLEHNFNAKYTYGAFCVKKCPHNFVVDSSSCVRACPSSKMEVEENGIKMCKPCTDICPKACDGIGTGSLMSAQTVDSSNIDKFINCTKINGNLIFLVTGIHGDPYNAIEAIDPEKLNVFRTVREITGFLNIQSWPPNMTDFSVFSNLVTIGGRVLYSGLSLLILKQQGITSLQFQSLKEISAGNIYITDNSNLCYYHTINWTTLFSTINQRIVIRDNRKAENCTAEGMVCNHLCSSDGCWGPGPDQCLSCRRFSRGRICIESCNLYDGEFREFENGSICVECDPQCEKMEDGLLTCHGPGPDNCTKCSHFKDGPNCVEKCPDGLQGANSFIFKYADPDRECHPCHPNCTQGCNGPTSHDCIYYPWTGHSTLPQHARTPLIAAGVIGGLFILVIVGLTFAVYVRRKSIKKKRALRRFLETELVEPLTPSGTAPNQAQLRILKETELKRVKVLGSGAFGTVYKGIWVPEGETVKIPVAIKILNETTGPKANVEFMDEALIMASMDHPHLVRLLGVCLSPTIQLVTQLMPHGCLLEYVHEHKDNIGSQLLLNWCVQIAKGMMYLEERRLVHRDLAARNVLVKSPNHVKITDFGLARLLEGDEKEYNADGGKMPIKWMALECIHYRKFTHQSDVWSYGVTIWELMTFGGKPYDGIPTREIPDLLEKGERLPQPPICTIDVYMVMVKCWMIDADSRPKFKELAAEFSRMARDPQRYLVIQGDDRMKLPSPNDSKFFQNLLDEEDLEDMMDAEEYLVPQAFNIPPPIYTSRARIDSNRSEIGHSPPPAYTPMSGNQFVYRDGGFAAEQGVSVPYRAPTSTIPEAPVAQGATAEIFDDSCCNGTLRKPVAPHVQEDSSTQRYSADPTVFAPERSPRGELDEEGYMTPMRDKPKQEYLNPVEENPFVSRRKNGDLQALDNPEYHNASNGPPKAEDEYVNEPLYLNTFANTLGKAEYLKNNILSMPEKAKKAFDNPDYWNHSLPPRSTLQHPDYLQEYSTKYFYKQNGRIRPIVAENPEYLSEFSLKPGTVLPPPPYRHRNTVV", "assay": "Kinase inhibitory profile", "type": "biochemical", "conditions": "Other Clinically-relevant Kinases; 10-point concentration assays"}, "FGFR": {"tested_on": "FGFR", "assay": "Kinase inhibitory profile", "type": "biochemical", "conditions": "Other Clinically-relevant Kinases; 10-point concentration assays"}, "PKC2β": {"biological_target": "PKC2β (Homo sapiens, UniProt O00750)", "assay": "Kinase inhibitory profile", "type": "biochemical", "conditions": "Class II PI3Ks; 10-point concentration assays"}, "[1]": {"tested_on": "Myeloma/ Leukemia/ Lymphoma", "assay": "NCI-60 panel cell growth screen (Figure 6)", "type": "cell-based, human"}, "PKCγ": {"tested_on": "PKCγ", "assay": "Kinase inhibitory profile", "type": "biochemical", "conditions": "Class II PI3Ks; 10-point concentration assays"}, "K-562": {"tested_on": "K-562", "assay": "NCI-60 panel cell growth screen", "type": "cell-based, human", "conditions": "K-562 (Leukemia)"}, "NCI-H23": {"tested_on": "NCI-H23", "assay": "NCI-60 panel cell growth screen", "type": "cell-based, human", "conditions": "NCI-H23 (NSCLC)"}, "MAPK": {"tested_on": "MAPK", "assay": "Kinase inhibitory profile", "type": "biochemical", "conditions": "Other Clinically-relevant Kinases; 10-point concentration assays"}, "HO-92": {"tested_on": "HO-92", "assay": "NCI-60 panel cell growth screen", "type": "cell-based, human", "conditions": "HO-92 (NSCLC)"}, "HCT-116": {"tested_on": "HCT-116", "assay": "NCI-60 panel cell growth screen", "type": "cell-based, human", "conditions": "HCT-116 (Colon cancer)"}, "[2]": {"conditions": "Class I PI3Ks, 10-point concentration assays"}, "[3]": {"conditions": "read-out: LC50 (the source's name)"}},
  "note": "pIC50: −log10 of the molar value.",
  "data": [
    {"substance": "N-[4-hydroxy-3-(8-quinolinylthio)-1-naphthyl]benzenesulfonamide [DT97]", "values": [
      {"measurement": "Inhibitory profile (kinase inhibition)", "setting": "p110-β; [2]", "value": "none"},
      {"measurement": "production of PIP3 (dose-dependent effect)", "setting": "p110-β; p110-β isoform, Figure 4B", "value": "no effect"},
      {"measurement": "Inhibitory profile (kinase inhibition)", "setting": "p110-δ; [2]", "value": "+++"},
      {"measurement": "production of PIP3 (dose-dependent effect)", "setting": "p110-δ; p110-δ isoform, Figure 4B", "value": "most potently"},
      {"measurement": "viability", "setting": "RPMI8226 cells", "value": "little effect"},
      {"measurement": "Inhibitory profile (kinase inhibition)", "setting": "PKC2-α", "value": "none"},
      {"measurement": "Inhibitory profile (kinase inhibition)", "setting": "AMPK", "value": "+"},
      {"measurement": "Inhibitory profile (kinase inhibition)", "setting": "VPS34", "value": "none"},
      {"measurement": "Inhibitory profile (kinase inhibition)", "setting": "ERBB4", "value": "+"},
      {"measurement": "Inhibitory profile (kinase inhibition)", "setting": "FGFR", "value": "none"},
      {"measurement": "Inhibitory profile (kinase inhibition)", "setting": "PKC2β", "value": "+"},
      {"measurement": "pIC50", "setting": "[1]", "value": "~6.35"},
      {"measurement": "Inhibitory profile (kinase inhibition)", "setting": "PKCγ", "value": "none"},
      {"measurement": "GI50", "setting": "K-562", "value": 929, "unit": "nM"},
      {"measurement": "TGI", "setting": "K-562", "value": "1.65E-5"},
      {"measurement": "Percent Growth", "setting": "K-562; log concentration −4.0", "value": "−12", "unit": "%"},
      {"measurement": "Percent Growth", "setting": "K-562; log concentration −5.0", "value": 3, "unit": "%"},
      {"measurement": "Percent Growth", "setting": "K-562; log concentration −6.0", "value": 48, "unit": "%"},
      {"measurement": "Percent Growth", "setting": "K-562; log concentration −7.0", "value": 111, "unit": "%"},
      {"measurement": "Percent Growth", "setting": "K-562; log concentration −8.0", "value": 108, "unit": "%"},
      {"measurement": "CC50", "setting": "K-562; [3]", "value": "> 100000", "unit": "nM"},
      {"measurement": "GI50", "setting": "NCI-H23", "value": 1930, "unit": "nM"},
      {"measurement": "TGI", "setting": "NCI-H23", "value": "1.28E-5"},
      {"measurement": "Percent Growth", "setting": "NCI-H23; log concentration −4.0", "value": "−58", "unit": "%"},
      {"measurement": "Percent Growth", "setting": "NCI-H23; log concentration −5.0", "value": 7, "unit": "%"},
      {"measurement": "Percent Growth", "setting": "NCI-H23; log concentration −6.0", "value": 67, "unit": "%"},
      {"measurement": "Percent Growth", "setting": "NCI-H23; log concentration −7.0", "value": 102, "unit": "%"},
      {"measurement": "Percent Growth", "setting": "NCI-H23; log concentration −8.0", "value": 98, "unit": "%"},
      {"measurement": "CC50", "setting": "NCI-H23; [3]", "value": 75900, "unit": "nM"},
      {"measurement": "Inhibitory profile (kinase inhibition)", "setting": "MAPK", "value": "+"},
      {"measurement": "GI50", "setting": "HO-92", "value": 2610, "unit": "nM"},
      {"measurement": "TGI", "setting": "HO-92", "value": "7.38E-6"},
      {"measurement": "Percent Growth", "setting": "HO-92; log concentration −4.0", "value": "−89", "unit": "%"},
      {"measurement": "Percent Growth", "setting": "HO-92; log concentration −5.0", "value": "−15", "unit": "%"},
      {"measurement": "Percent Growth", "setting": "HO-92; log concentration −6.0", "value": 96, "unit": "%"},
      {"measurement": "Percent Growth", "setting": "HO-92; log concentration −7.0", "value": 77, "unit": "%"},
      {"measurement": "Percent Growth", "setting": "HO-92; log concentration −8.0", "value": 84, "unit": "%"},
      {"measurement": "CC50", "setting": "HO-92; [3]", "value": 29800, "unit": "nM"},
      {"measurement": "GI50", "setting": "HCT-116", "value": 555, "unit": "nM"},
      {"measurement": "TGI", "setting": "HCT-116", "value": "2.80E-6"},
      {"measurement": "Percent Growth", "setting": "HCT-116; log concentration −4.0", "value": "−92", "unit": "%"},
      {"measurement": "Percent Growth", "setting": "HCT-116; log concentration −5.0", "value": "−43", "unit": "%"},
      {"measurement": "Percent Growth", "setting": "HCT-116; log concentration −6.0", "value": 34, "unit": "%"},
      {"measurement": "Percent Growth", "setting": "HCT-116; log concentration −7.0", "value": 95, "unit": "%"},
      {"measurement": "Percent Growth", "setting": "HCT-116; log concentration −8.0", "value": 98, "unit": "%"},
      {"measurement": "CC50", "setting": "HCT-116; [3]", "value": 14100, "unit": "nM"}
    ]}
  ]
}
